Experimental data reported in US20080056993A1, “Compositions, Methods and Kits Using Adenosine and Inosine in Combination for Diagnosis and Treatment” (ADENOBIO N.V., priority 2006, published 2008).
“And” between values parts separate entries of the source, which are not always exact repeats. Identical values can stand only once. Values belong to the compound of their own block, whether it stands above or below them.

Legend:
[1] = test system: male Wistar rats; assay: Reperfusion injury after myocardial ischemia in the rat, repeated with 45 minute ischemia; format: in vivo; conditions: day 30 post ischemia, preliminary
Protocol: The experiment was repeated with 45 minute period of ischemia, and with the addition of a further BIDOSINE experimental group. The BIDOSINE composition for this additional group comprised adenosine, administered at 0.01 mg/kg/min ( 1/10 its single agent maximally effective dose) with inosine 0.20 mg/kg/min, for an A:I weight ratio of 1:20. Preliminary results (n=5 per group) of this ongoing study are given in Table 5, below, reporting day 30 post ischemia results.

[2] = test system: sheep; assay: Regional myocardial blood flow by colored microsphere technique in sheep; format: in vivo; conditions: mean of 9 experiments, after 5 minutes of adenosine or BIDOSINE
Excerpt: Regional blood flows, as well as potential changes in the distribution of coronary flow into different parts of the myocardium, were also studied. This was done by using a colored microsphere technique, essentially as described in Muller et al., “Developmental changes in cerebral autoregulatory capacity in the fetal sheep parietal cortex,” J Physiol. 539(Pt 3):957-67 (2002); Miller et al., “Physiological evidence for arteriovenous anastomoses in the uterine circulation of late-pregnant ewes,” Clin. Exp. Pharmacol. Physiol. 25(2):92-8 (1998); Herijgers et al., “Changes in organ perfusion after brain death in the rat and its relation to circulating catecholamines,” Transplantation 62: 330-335 (1996); and Wouters et al., “Ischemic event characteristics determine the extent of myocardial stunning in conscious dogs,” Basic Res. Cardiol. 91(2):140-6 (1996), the disclosures of which are incorporated herein by reference in their entireties. Briefly, colored microspheres were injected at baseline, and after 5 minutes of adenosine or BIDOSINE administration. At necropsy, tissue was digested and the number of colored microspheres per gram of wet weight in a tissue sample determined. By comparing these numbers with the number of microspheres in a reference sample drawn from the aorta at a predetermined rate, we could quantify the absolute flow rate to the tissue sample at the moment when the microspheres were injected. The statistical analysis was performed by the same methodology as for the hemodynamic parameters. Values are expressed in ml/min/g tissue (wet weight). LV=left ventricle; RV=right ventricle; endo=endocardial half; epi=epicardial half. As in Table 2, the numbers reflect the sequence of experimental conditions, as follows: 1) under baseline conditions; 2) under adenosine; 3) 15 minutes stabilization, then new measurements under baseline conditions; 4) measurements under bidosine.

[3] = Maximal solubility in nonpyrogenic fluid suitable for parenteral infusion; format: physicochemical; conditions: adenosine and inosine combined in a nonpyrogenic fluid suitable for parenteral infusion
Protocol: Combined in a nonpyrogenic, fluid suitable for parenteral infusion, maximal adenosine solubility is about 4 mg/ml and that of inosine 20 mg/ml. Concentrations approaching one or both of these maxima are convenient for unit dosage forms intended for long infusion times, since high concentrations of the nucleoside actives reduce the volume required to be infused. Typical embodiments include, for example, 250 ml containers (vials, etc.) containing 1,000 mg of adenosine with 100 mg, 1,000 mg, 2,000 mg, or even 3,000 mg, 4,000 mg, 5,000 mg, even 6,000 mg of inosine, with intermediate inosine amounts permissible.

[4] = test system: male Wistar rats; assay: Reperfusion injury after left myocardial ischemia (35 min LAD occlusion) in the rat, echocardiography; format: in vivo; set-up: EDV (end-diastolic volume), single animals / ESV (end-systolic volume), single animals / EDV (end-diastolic volume), group mean (unlabelled last line of group) / ESV (end-systolic volume), group mean (unlabelled last line of group): unit not given here; conditions: for EDV (end-diastolic volume), single animals / EF (ejection fraction), single animals / ESV (end-systolic volume), single animals: 60 min i.v. infusion after 35 min occlusion
[5] = test system: anaesthetized rats; assay: Carotid blood flow (CaBF) in anaesthetized rats, continuous i.v. infusion; format: in vivo, rat; conditions: for increase in CaBF, percentage variation from baseline: 6 min continuous i.v. infusion, adenosine 0.05 mg/kg/min, inosine 0.2 mg/kg/min, alone or combined (A:I 1:4), Mean±SEM, n=6; for effect of inosine alone on CaBF: 5 min i.v. infusion
Protocol: The study was conducted on 7 week old male Wistar rats weighing 250-300 g. Rats were anaesthetized with Inactin 100 mg/kg i.p. Inactin was preferred to other anaesthetics because of its moderate impact on blood pressure. Heparin-filled (100 IU/ml in saline) catheters were introduced into the left common carotid artery and into the left jugular vein for measurement of blood pressure and drug administration respectively. A flow probe was inserted around the right carotid artery for measurement of carotid blood flow (CaBF).
In a first series of experiments, adenosine was administered as a single agent to identify the dose providing maximal increase in carotid arterial blood flow (“adenosine max”). In this experiment, various concentrations of adenosine were infused continuously through the jugular vein catheter for 5 minutes, with concurrent measurement of carotid arterial blood flow.
A second series of experiments was performed to assess whether inosine could potentiate the effects on CaBF of a continuous intravenous infusion of adenosine at half adenosine max.
In each experiment, the effect on CaBF of (i) adenosine as a single agent, infused continuously for five minutes at adenosine max (0.1 mg/kg/min), (ii) adenosine as single agent infused continuously for five minutes at half adenosine max (0.05 mg/kg/min), and (iii) a composition containing a fixed dose of adenosine at half adenosine max (0.05 mg/kg/min) combined with inosine infused continuously for five minutes, was assessed. In separate experiments, inosine was included in the combined (“BIDOSINE”) composition in amounts required to achieve infusion at 0.1 mg/kg/min (A:I weight ratio of 1:2, FIG. 2A), 0.15 mg/kg/min (A:I weight ratio of 1:3, FIG. 2B), 0.2 mg/kg/min (A:I weight ratio of 1:4, FIG. 2C), and 0.25 mg/kg/min (A:I weight ratio of 1:5, FIG. 2D).

[6] = test system: rat model of spinal cord ischemia; assay: Photothrombotic model of spinal cord ischemia in rats, behavioral studies; format: in vivo
Protocol: BIDOSINE administration was compared to adenosine (0.1 mg/kg/min), administered by continuous i.v. infusion from thirty to sixty minutes after the injury (n=13 in each group). As controls, a group of animals (n=11) received a 60-min IV perfusion of saline solution starting 30 min after the injury. The potential neuroprotective effect of the compound was evaluated by performing various behavioral studies. In these experiments, the photothrombotic model of ischemia was chosen over the occlusion model (aortic clamp), since it better reproduces the pathophysiology of an ischemic insult. The photothrombotic model has the advantages of (i) causing a […] processes that more perfectly mimics the pathophysiological conditions observed in clinics, and (ii) affecting a controlled volume of nervous tissue. Moreover, the location of the lesion can be restricted to precise regions (three to four […]). The injury is created using a beam of a xenon lamp conveyed by fiberoptics on the selected vertebral site. The irradiation is performed over the translucent dorsal surface of the vertebral laminae. The green light (560 nm) induces the excitation of the previously injected dye (Rose Bengal) present in the spinal cord microvasculature. […]

[7] = test system: human patients; conditions: cited from earlier work
[8] = test system: sheep; assay: Invasive cardiac hemodynamic measurements in experimental sheep model; format: in vivo
Excerpt: An experimental sheep model, developed for invasive hemodynamic measurements under various conditions, was used to study the potentiating and synergistic effects of inosine on continuous adenosine infusion. The model is described in Tanoue et al., “Ischemic preconditioning reduces unloaded myocardial oxygen consumption in an in-vivo sheep model,” Cardiovascular Research 55: 633-641 (2002) and Xia et al., “Remote preconditioning lessens the deterioration of pulmonary function after repeated coronary artery occlusion and reperfusion,” Canadian Journal of Anesthesia 50: 481-488 (2003), the disclosures of which are incorporated herein by reference in their entireties. A total of twelve animals were studied. Briefly, the sheep were premedicated, anesthetized, intubated, and ventilated with positive pressure ventilation. Electrocardiogram (ECG) was continuously followed. The carotid artery was surgically denuded to place an arterial line for arterial blood pressure (ABP) measurement. Denuding of the jugular vein was performed to place a double or triple lumen central venous line for measurement of central venous pressure (CVP) and fluid and drug administration. A small left thoracotomy was made in the third or fourth intercostal space and the heart suspended in a pericardial cradle. A flow probe (transonic probe) was placed around the pulmonary artery and around the left circumflex coronary artery. A catheter was inserted in the pulmonary artery to determine pulmonary arterial pressure. In addition, 9 animals received a conductance catheter which was positioned in the left and right ventricle and preload-afterload variations were made by occlusion and/or constriction of the caval veins and/or pulmonary artery and/or aorta in order to study myocardial contractility. Regional blood flow measurements were also performed using a colored microsphere injection technique. Each animal served as its own control. The sequence of measurements was always the same: 1) under baseline conditions; 2) under adenosine; 3) 15 minutes stabilization, then new measurements under baseline conditions; 4) measurements under bidosine. From the first three animal experiments, it was determined that adenosine 200 μg/kg/min was the optimal single agent adenosine dose, i.e., the dose ensuring the highest coronary flow (adenosine max). Therefore, all further experiments compared this dose to the BIDOSINE formulation containing 100 μg/kg/min (that is, half adenosine max) adenosine+500 μg/kg/min inosine (A:I ratio of 1:5).

[9] = cited from earlier work
[10] = adenosine 200 μg/kg/min or BIDOSINE (adenosine 100 + inosine 500 μg/kg/min)
[11] = adenosine 200 μg/kg/min or BIDOSINE (adenosine 100 + inosine 500 μg/kg/min), listed as Adenosine

solubility [3]: ~4 mg/mL
Systolic left ventricular pressure (LVPsys), mean [8, 10]: decreased significantly more
Systolic left ventricular pressure (LVPsys), mean [8, 11]: 59.35
Compound: Nc1ncnc2c1ncn2[C@@H]1O[C@H](CO)[C@@H](O)[C@H]1O [adenosine]
left ventricular EF (LVEF) [1]: 45%
EDV ([1]; n=5 per group): 0.47
ESV ([1]; n=5 per group): 0.26
LVEF ([1]; n=5 per group): 0.45
Regional blood flow, left ventricle endocardial half (Lvendo), mean [2]: 1.763 ml/min/g tissue (wet weight)
Regional blood flow, left ventricle epicardial half (Lvepi), mean [2]: 2.039 ml/min/g tissue (wet weight)
Regional blood flow, right ventricle endocardial half (RVendo), mean [2]: 2.227 ml/min/g tissue (wet weight)
Regional blood flow, right ventricle epicardial half (RVepi), mean [2]: 1.728 ml/min/g tissue (wet weight)
Regional blood flow, left ventricle endocardial half (Lvendo), mean ([2]; listed as Adenosine): 1.764 ml/min/g tissue (wet weight)
EDV (end-diastolic volume), group mean (unlabelled last line of group) ([4]; Post-operative day 2): 0.40
EF (ejection fraction), group mean (unlabelled last line of group) ([4]; Post-operative day 2): 0.60
ESV (end-systolic volume), group mean (unlabelled last line of group) ([4]; Post-operative day 2): 0.16
EDV (end-diastolic volume), single animals ([4]; Post-operative day 2): 0.41 and 0.35 and 0.37 and 0.48
EF (ejection fraction), single animals ([4]; Post-operative day 2): 0.67 and 0.64 and 0.60 and 0.49
ESV (end-systolic volume), single animals ([4]; Post-operative day 2): 0.14 and 0.13 and 0.15 and 0.24
EDV (end-diastolic volume), group mean (unlabelled last line of group) ([4]; Post-operative day 30): 0.38
EF (ejection fraction), group mean (unlabelled last line of group) ([4]; Post-operative day 30): 0.59
ESV (end-systolic volume), group mean (unlabelled last line of group) ([4]; Post-operative day 30): 0.20
EDV (end-diastolic volume), single animals ([4]; Post-operative day 30): 0.44 and 0.42 and 0.33 and 0.36
EF (ejection fraction), single animals ([4]; Post-operative day 30): 0.61 and 0.32 and 0.65 and 0.44
ESV (end-systolic volume), single animals ([4]; Post-operative day 30): 0.17 and 0.29 and 0.12 and 0.20
ejection fraction ([4]; day 30, adenosine 0.1 mg/kg/min or adenosine 0.05 + inosine 0.25 mg/kg/min): 59%
adenosine dose providing maximal CaBF as a single agent (adenosine max) ([5]; 5 min continuous i.v. infusion, 0.01-1 mg/kg/min tested): 0.1 mg/kg/min
increase in CaBF, percentage variation from baseline [5]: 7±4%
behavioral recovery (motor, sensory and reflex scores), all tested functions ([6]; BIDOSINE 1:5 (adenosine 0.05 + inosine 0.25 mg/kg/min) or adenosine 0.1 mg/kg/min i.v. after injury, follow-up to day 10): best efficacy until day 4
gross and fine motor functional outcomes (open field, inclined plane, grid navigation) ([6]; compared to saline controls, to day 10, two way ANOVA p<0.001): Statistically significant improvements over control
side effects ([7]; continuous intravenous infusion 140 μg/kg/min for 6 minutes): frequent side effects
adverse reactions ([7]; dosage of 70 μg/kg/min or less): very few and of mild intensity
Cardiac output (co), mean [8, 10]: 4943
Central venous pressure (CVP), mean [8, 10]: 9.4875
Coronary flow (cf), mean [8, 10]: 129.55
Heart rate (HR), mean [8, 10]: 90.6375
Left ventricular dP/dtmax (contractility) (dpmax), mean [8, 10]: 1077.714
Left ventricular dP/dtmin (relaxation) (dpmin), mean [8, 10]: worsened significantly more
Mean arterial blood pressure (ABPm), mean [8, 10]: decreased significantly more
Mean pulmonary arterial pressure (pupm), mean [8, 10]: 16.425
Left ventricular dP/dtmin (relaxation) (dpmin), mean [8, 11]: −821.286
Mean arterial blood pressure (ABPm), mean [8, 11]: 43.2625
left ventricular relaxation constant (Tau) compared with baseline ([8]; adenosine at adenosine max or BIDOSINE A:I 1:5, ANOVA p=0.001): significantly shorter
coronary blood flow ([8]; continuous i.v. infusion, adenosine 200 μg/kg/min or BIDOSINE (100 + 500 μg/kg/min)): 129.5 cms/sec
optimal single agent adenosine dose, ensuring the highest coronary flow (adenosine max) ([8]; from the first three animal experiments): 200 µg/kg/min
half life [9]: several seconds

solubility [3]: 20 mg/mL
Compound: OC[C@H]1O[C@@H](n2cnc3c(O)ncnc32)[C@H](O)[C@@H]1O [inosine]
increase in CaBF, percentage variation from baseline [5]: 4±2%
effect of inosine alone on CaBF ([5]; inosine 0.3 mg/kg/min): No response
effect of inosine alone on CaBF ([5]; inosine 1 mg/kg/min (10 times adenosine max)): Modest decreases in CaBF
effect of inosine alone on CaBF ([5]; inosine between 1 to 10 mg/kg/min): sharp slump and dose-dependent decrease in CaBF
